Measurements published in US20230200393A1, “SELECTIVE HERBICIDES BASED ON SUBSTITUTED ISOXAZOLIN CARBOXAMIDES AND METCAMIFEN” (Bayer Aktiengesellschaft, priority 2020, published 2023).

What was measured:
ZEAMA Sileno [1] = assay: Safener seed treatment, pre-emergence herbicide crop damage; assay type: in vivo, maize; conditions: for HER effect: no safener
Experimental: (§1) For the safener seed treatment, sufficient seeds of the respective crops (spring wheat, TRZAS; spring barley, HORVS; maize, ZEAMA) were weighed into screw top glass bottles approximately twice the volume of the seeds.
(§2) The specified safeners, formulated as wettable powder (WP) were weighed out so that the specified rates (g a.i./kg seed) would be obtained, dissolved in water (1 ml water per 10 g of seeds), and added to the seeds to produce a slurry.
(§3) The bottles were capped and then placed in an overhead shaker (set at medium speed for ca. 60 minutes) so that the seeds were evenly coated with the slurry. The bottles were uncapped and the seeds were either placed on paper and dried for an interval of 3-4 hours prior to sowing, or directly sown. Seeds were placed in sandy loam soil in pots of a diameter of 7-8 cm, and covered with soil.
(§4) Pre-emergence application of the specified herbicides was done subsequently, on two sets of plants:
(§5) a) seed treatment with safener, as described above
(§6) The herbicides were formulated as WP and was sprayed onto the soil surface as an aqueous suspension at an equivalent water application rate of 300 l/ha.
(§7) After application, the test plants were kept in the greenhouse under good growth conditions. At intervals up to 4 weeks after application (=28 days after treatment; DAT), % crop damage observed on the treated plants was scored visually in comparison to control plants that had not received any safener or herbicide treatment.
(§8) Values in the table below are mean values of at least 2 replicates.

TRZAS Triso [2] = assay: Tank-mix post-emergence crop damage, herbicide with/without safener metcamifen; assay type: in vivo, spring wheat; conditions: 21 DAT
Experimental: (§9) Seeds of crops (spring wheat, TRZAS; spring barley, HORVS; maize, ZEAMA) were placed in sandy loam soil in peat pots, covered with soil and cultivated in a greenhouse under good growth conditions. Two to three weeks after sowing, the test plants were treated at the 1 to 3-leaf stage. The herbicide/safener active compound combinations according to the invention, formulated as wettable powders or emulsion concentrates, and, in parallel tests, the correspondingly formulated individual active compounds were sprayed onto the green parts of the plants in various dosages using an amount of water of 300 l/ha (converted).
(§10) The pots were returned under good growing conditions in a glasshouse and a visual assessment of herbicidal effects was made at intervals from 1 to 3 weeks after herbicide application (DAT=days after treatment). Assessment was on a percentage basis in comparison with untreated control plants (0%=no injury, 100%=complete kill).

ZEAMA Sileno [3] = assay: as above; assay type: in vivo, maize; conditions: for HER effect + SAF / Reduction [%] / Reduction [Difference]: Final; for HER effect: no safener, Final assessment, post-emergence
Experimental: as §9, §10

TRZAS Triso [4] = assay: Safener seed treatment, pre-emergence herbicide crop damage; assay type: in vivo, spring wheat; conditions: 21 (Final) DAT; for HER effect: no safener
Experimental: as §1, §2, §3, §4, §5, §6, §7, §8

[5] = HER 40 g a.i./ha + metcamifen seed treatment 0.25 g a.i./kg seed, 14 DAT
[6] = HER 40 g a.i./ha pre-emergence, 14 DAT
[7] = HER 80 g a.i./ha + metcamifen seed treatment 0.25 g a.i./kg seed, 14 DAT
[8] = HER 80 g a.i./ha + metcamifen seed treatment 0.25 g a.i./kg seed, 26 DAT
[9] = HER 0.5 g a.i./ha + metcamifen 50 g a.i./ha
[10] = HER 2 g a.i./ha + metcamifen 50 g a.i./ha
[11] = HER 8 g a.i./ha + metcamifen 50 g a.i./ha
[12] = HER 32 g a.i./ha + metcamifen 100 g a.i./ha
[13] = HER 5 g a.i./ha + metcamifen seed treatment 0.25 g a.i./kg seed
[14] = HER 15 g a.i./ha + metcamifen seed treatment 0.25 g a.i./kg seed
[15] = HER 40 g a.i./ha + metcamifen seed treatment 0.25 g a.i./kg seed, 26 DAT
[16] = HER 8 g a.i./ha + metcamifen 100 g a.i./ha
[17] = HER 32 g a.i./ha + metcamifen 50 g a.i./ha

COCCOC(=O)C1C=CC(NC(=O)C2(C(F)(F)F)CC(c3cc(F)cc(C#N)c3)=NO2)C1 (stereo not drawn) [Example 1.2]
HER effect + SAF (ZEAMA Sileno [1]; [5]): 20%
Reduction [%] (ZEAMA Sileno [1]; [5]): 50%
Reduction [Difference] (ZEAMA Sileno [1]; [5]): 20
HER effect (ZEAMA Sileno [1]; [6]): 40%

C=CC1(C(=O)NC2C=CC(C(=O)OC)C2)CC(c2cc(F)cc(F)c2)=NO1 (stereo not drawn) [Example 1.26]
HER effect (ZEAMA Sileno [1]; [6]): 25%
Reduction [%] (ZEAMA Sileno [1]; [7]): 86%
Reduction [%] (ZEAMA Sileno [1]; [8]): 86%
HER effect + SAF (TRZAS Triso [2]; [9]): 20%
Reduction [%] (TRZAS Triso [2]; [9]): 50%
HER effect + SAF (TRZAS Triso [2]; [10]): 80%
Reduction [%] (TRZAS Triso [2]; [10]): 11%
Reduction [Difference] (TRZAS Triso [2]; [10]): 10
HER effect (TRZAS Triso [2]; HER 2 g a.i./ha, no safener): 90%
HER effect + SAF (ZEAMA Sileno [3]; [11]): 22%
Reduction [%] (ZEAMA Sileno [3]; [11]): 61%
Reduction [Difference] (ZEAMA Sileno [3]; [11]): 35
HER effect (ZEAMA Sileno [3]; HER 8 g a.i./ha): 57%
HER effect + SAF (ZEAMA Sileno [3]; [12]): 35%
Reduction [%] (ZEAMA Sileno [3]; [12]): 63%
Reduction [Difference] (ZEAMA Sileno [3]; [12]): 59
HER effect (ZEAMA Sileno [3]; HER 32 g a.i./ha): 94%

COC(=O)C1COCC1NC(=O)C1(C)CC(c2cc(F)cc(F)c2)=NO1 (mixture of isomers) [Example 1.93]
HER effect + SAF (TRZAS Triso [4]; [13]): 5%
Reduction [%] (TRZAS Triso [4]; [13]): 86%
Reduction [Difference] (TRZAS Triso [4]; [13]): 30
HER effect (TRZAS Triso [4]; HER 5 g a.i./ha pre-emergence): 35%
HER effect + SAF (TRZAS Triso [4]; [14]): 10%
Reduction [%] (TRZAS Triso [4]; [14]): 85%
Reduction [Difference] (TRZAS Triso [4]; [14]): 55
HER effect (TRZAS Triso [4]; HER 15 g a.i./ha pre-emergence): 65%

C=CC1(C(=O)NC2C=C(C(=O)OC)OC2)CC(c2cc(C)cc(C)c2)=NO1 (stereo not drawn) [Example 1.90]
Reduction [%] (ZEAMA Sileno [1]; [8]): 83%
Reduction [Difference] (ZEAMA Sileno [1]; [8]): 25
HER effect (ZEAMA Sileno [1]; HER 80 g a.i./ha pre-emergence, 26 DAT): 30%

CSCCOC(=O)C1C=CC(NC(=O)C2(C(F)(F)F)CC(c3cc(F)cc(F)c3)=NO2)C1 (stereo not drawn) [Example 1.7]
HER effect + SAF (ZEAMA Sileno [1]; [5]): 55%
Reduction [%] (ZEAMA Sileno [1]; [5]): 34%
Reduction [Difference] (ZEAMA Sileno [1]; [5]): 28
Reduction [%] (ZEAMA Sileno [1]; [15]): 44%
Reduction [Difference] (ZEAMA Sileno [1]; [15]): 20
HER effect (ZEAMA Sileno [1]; [6]): 83%

COC(=O)C1OCCC1NC(=O)C1(C)CC(c2cc(F)cc(F)c2)=NO1 (stereo not drawn) [Example 1.92]
Reduction [%] (ZEAMA Sileno [1]; [5]): 87%
Reduction [Difference] (ZEAMA Sileno [1]; [5]): 65
HER effect + SAF (ZEAMA Sileno [1]; [15]): 0%
Reduction [%] (ZEAMA Sileno [1]; [15]): 100%

C=CC1(C(=O)NC2COC(C(=O)OC)C2)CC(c2cc(F)cc(F)c2)=NO1 (stereo not drawn) [Example 1.70]
HER effect + SAF (ZEAMA Sileno [1]; [5]): 20%
Reduction [%] (ZEAMA Sileno [1]; [5]): 75%
Reduction [Difference] (ZEAMA Sileno [1]; [5]): 60
HER effect + SAF (ZEAMA Sileno [1]; [15]): 5%
Reduction [%] (ZEAMA Sileno [1]; [15]): 94%
Reduction [Difference] (ZEAMA Sileno [1]; [15]): 80
Reduction [%] (ZEAMA Sileno [1]; [7]): 63%
Reduction [Difference] (ZEAMA Sileno [1]; [7]): 60
HER effect + SAF (ZEAMA Sileno [1]; [8]): 25%
Reduction [%] (ZEAMA Sileno [1]; [8]): 74%
Reduction [Difference] (ZEAMA Sileno [1]; [8]): 70

C=CC1(C(=O)NC2COC(C(=O)OC)C2)CC(c2cc(F)cc(F)c2)=NO1 (stereo not drawn) [Example 1.69]
HER effect + SAF (ZEAMA Sileno [1]; [5]): 20%
Reduction [%] (ZEAMA Sileno [1]; [5]): 79%
Reduction [Difference] (ZEAMA Sileno [1]; [5]): 75
Reduction [%] (ZEAMA Sileno [1]; [15]): 67%
Reduction [Difference] (ZEAMA Sileno [1]; [15]): 60

C=CC1(C(=O)NC2COC(C(=O)OC)C2)CC(c2cc(F)cc(F)c2)=NO1 (mixture of isomers) [Example 1.68]
HER effect + SAF (ZEAMA Sileno [1]; [5]): 30%
Reduction [%] (ZEAMA Sileno [1]; [5]): 68%
Reduction [Difference] (ZEAMA Sileno [1]; [5]): 63
Reduction [%] (ZEAMA Sileno [1]; [15]): 74%
Reduction [Difference] (ZEAMA Sileno [1]; [15]): 70
HER effect (ZEAMA Sileno [1]; HER 40 g a.i./ha pre-emergence, 26 DAT): 95%
HER effect + SAF (ZEAMA Sileno [1]; [7]): 75%
Reduction [%] (ZEAMA Sileno [1]; [7]): 23%
Reduction [Difference] (ZEAMA Sileno [1]; [7]): 22
HER effect (ZEAMA Sileno [1]; HER 80 g a.i./ha pre-emergence, 14 DAT): 97%
HER effect + SAF (TRZAS Triso [4]; [13]): 10%
Reduction [%] (TRZAS Triso [4]; [13]): 78%
HER effect + SAF (ZEAMA Sileno [3]; [16]): 48%
Reduction [Difference] (ZEAMA Sileno [3]; [16]): 48
HER effect (ZEAMA Sileno [3]; HER 8 g a.i./ha): 96%
HER effect + SAF (ZEAMA Sileno [3]; [17]): 67%
Reduction [%] (ZEAMA Sileno [3]; [17]): 32%
Reduction [Difference] (ZEAMA Sileno [3]; [17]): 31
HER effect (ZEAMA Sileno [3]; HER 32 g a.i./ha): 98%

COCCOC(=O)C1C=CC(NC(=O)C2(C)CC(c3cc(Cl)cc(C#N)c3)=NO2)C1 (stereo not drawn) [Example 1.5]
HER effect + SAF (ZEAMA Sileno [1]; [7]): 35%
Reduction [%] (ZEAMA Sileno [1]; [7]): 42%
HER effect + SAF (ZEAMA Sileno [1]; [8]): 25%
Reduction [%] (ZEAMA Sileno [1]; [8]): 44%
